{
  "source": "PubChem BioAssay AID1259409",
  "about": "(Chemical Carcinogenesis Research Information System (CCRIS), 2018)",
  "origin": "cited, not measured here",
  "tested_on": "rodent chemically induced tumor inhibition, incidence and multiplicity",
  "assay": "CCRIS tumor inhibitor studies",
  "conditions": "Route [Inhibitor]: ORAL",
  "data": [
    {"smiles": "Cc1c(C)c2c(c(C)c1O)CC[C@@](C)(CCC[C@H](C)CCC[C@H](C)CCCC(C)C)O2", "values": [
      {"measurement": "tumour outcome (control, treated, inhibition, significance)", "setting": "Carcinogen: 1,2-DIMETHYLHYDRAZINE, 540-73-8, Dose [Inhibitor]: 600 MG/KG OF DIET DAILY STARTING AT AGE 10 WK AND CONTINUING FOR DURATION OF STUDY (STUDY DURATION: 28 WK), Species: MOUSE, Strain/Sex: LACA/MALE, Target Tissue: Type of Lesion: COLON: ADENOMA, CARCINOMA, Dose [Carcinogen]: 10 MG/KG BW 1/WK FOR 28 WK, Promoter: NONE USED", "value": "34/42 (81%), 31/51 (61%), 25%, p<0.25"},
      {"measurement": "tumour outcome (control, treated, inhibition, significance)", "setting": "Carcinogen: 2-AMINO-1-METHYL-6-PHENYL-1H-IMIDAZO[4,5-B]PYRID INE, 105650-23-5, Dose [Inhibitor]: 0, 1% IN THE DIET FOR 52 WK (STUDY DURATION: 52 WK), Species: RAT, Strain/Sex: F344/FEMALE, Target Tissue: Type of Lesion: MAMMARY GLAND: ADENOCARCINOMA FIBROADENOMA, Dose [Carcinogen]: 0.02% IN THE DIET FOR 52 WK, Promoter: NONE USED", "value": "2/20 (10%), 1/20 (5%), 50%, not significant"},
      {"measurement": "tumour outcome (control, treated, inhibition, significance)", "setting": "Carcinogen: 2-AMINO-1-METHYL-6-PHENYL-1H-IMIDAZO[4,5-B]PYRID INE, 105650-23-5, Dose [Inhibitor]: 0, 1% IN THE DIET FOR 52 WK (STUDY DURATION: 52 WK), Species: RAT, Strain/Sex: F344/FEMALE, Target Tissue: Type of Lesion: MAMMARY GLAND: ADENOCARCINOMA, Dose [Carcinogen]: 0.02% IN THE DIET FOR 52 WK, Promoter: NONE USED", "value": "8/20 (40%), 4/20 (20%), 50%, not significant"},
      {"measurement": "tumour outcome (control, treated, inhibition, significance)", "setting": "Carcinogen: 2-AMINO-1-METHYL-6-PHENYLIMIDAZO[4,5-B]PYRIDINE [105650-23-5], Dose [Inhibitor]: 0.5% IN DIET FOR 54 WK (STUDY DURATION: 54 WK), Species: RAT, Strain/Sex: F344/DUCRJ/FEMALE, Target Tissue: Type of Lesion: COLON: ADENOMA OR ADENOCARCINOMA, Dose [Carcinogen]: 0.02% IN DIET FOR 54 WK (STUDY DURATION: 54 WK), Promoter: NONE", "value": "3/20 (15%), 1/20 (5%), 67%, not significant"},
      {"measurement": "tumour outcome (control, treated, inhibition, significance)", "setting": "Carcinogen: 2-AMINO-1-METHYL-6-PHENYLIMIDAZO[4,5-B]PYRIDINE [105650-23-5], Dose [Inhibitor]: 0.5% IN DIET FOR 54 WK (STUDY DURATION: 54 WK), Species: RAT, Strain/Sex: F344/DUCRJ/FEMALE, Target Tissue: Type of Lesion: MAMMARY GLAND: ADENOMA OR ADENOCARCINOMA, Dose [Carcinogen]: 0.02% IN DIET FOR 54 WK (STUDY DURATION: 54 WK), Promoter: NONE", "value": "8/20 (40%), 4/20 (20%), 50%, not significant"},
      {"measurement": "tumour outcome (control, treated, inhibition, significance)", "setting": "Carcinogen: 3,2'-DIMETHYL-4-AMINOBIPHENYL, 13394-86-0, Dose [Inhibitor]: 0, 1% IN BASAL DIET BEGINNING POST CARCINOGEN TREATMENT AND CONTINUING FOR 40 WK (STUDY DURATION: 60 WK), Species: RAT, Strain/Sex: F344/MALE, Target Tissue: Type of Lesion: LARGE INTESTINE: ADENOMA AND ADENOCARCINOMA, Dose [Carcinogen]: 50 MG/KG 1/2 WK FOR 20 WK TO RATS MAINTAINED ON ETHINYL ESTRADIOL CONTAINING DIET (0.75 PPM) FOR 1 WK CYCLED WITH ETHINY, Promoter: ETHINYL ESTRADIOL, 57-63-6", "value": "3/10 (30%), 4/12 (33%), -10%, not significant"},
      {"measurement": "tumour outcome (control, treated, inhibition, significance)", "setting": "Carcinogen: 3,2'-DIMETHYL-4-AMINOBIPHENYL, 13394-86-0, Dose [Inhibitor]: 0, 1% IN BASAL DIET BEGINNING POST CARCINOGEN TREATMENT AND CONTINUING FOR 40 WK (STUDY DURATION: 60 WK), Species: RAT, Strain/Sex: F344/MALE, Target Tissue: Type of Lesion: PREPUTIAL GLAND: ADENOMA AND CARCINOMA, Dose [Carcinogen]: 50 MG/KG 1/2 WK FOR 20 WK TO RATS MAINTAINED ON ETHINYL ESTRADIOL CONTAINING DIET (0.75 PPM) FOR 1 WK CYCLED WITH ETHINY, Promoter: ETHINYL ESTRADIOL, 57-63-6", "value": "5/10 (50%), 6/12 (50%), 0%, not significant"},
      {"measurement": "tumour outcome (control, treated, inhibition, significance)", "setting": "Carcinogen: 3,2'-DIMETHYL-4-AMINOBIPHENYL, 13394-86-0, Dose [Inhibitor]: 0, 1% IN BASAL DIET BEGINNING POST CARCINOGEN TREATMENT AND CONTINUING FOR 40 WK (STUDY DURATION: 60 WK), Species: RAT, Strain/Sex: F344/MALE, Target Tissue: Type of Lesion: SMALL INTESTINE: ADENOMA AND ADENOCARCINOMA, Dose [Carcinogen]: 50 MG/KG 1/2 WK FOR 20 WK TO RATS MAINTAINED ON ETHINYL ESTRADIOL CONTAINING DIET (0.75 PPM) FOR 1 WK CYCLED WITH ETHINY, Promoter: ETHINYL ESTRADIOL, 57-63-6", "value": "2/10 (20%), 1/12 (8%), 60%, not significant"},
      {"measurement": "tumour outcome (control, treated, inhibition, significance)", "setting": "Carcinogen: 3,2'-DIMETHYL-4-AMINOBIPHENYL, 13394-86-0, Dose [Inhibitor]: 0, 1% IN BASAL DIET BEGINNING POST CARCINOGEN TREATMENT AND CONTINUING FOR 40 WK (STUDY DURATION: 60 WK), Species: RAT, Strain/Sex: F344/MALE, Target Tissue: Type of Lesion: SUBCUTIS: TUMOR, Dose [Carcinogen]: 50 MG/KG 1/2 WK FOR 20 WK TO RATS MAINTAINED ON ETHINYL ESTRADIOL CONTAINING DIET (0.75 PPM) FOR 1 WK CYCLED WITH ETHINY, Promoter: ETHINYL ESTRADIOL, 57-63-6", "value": "1/10 (10%), 0/12 (0%), 100%, not significant"},
      {"measurement": "tumour outcome (control, treated, inhibition, significance)", "setting": "Carcinogen: 3,2'-DIMETHYL-4-AMINOBIPHENYL, 13394-86-0, Dose [Inhibitor]: 0, 1% IN BASAL DIET BEGINNING POST CARCINOGEN TREATMENT AND CONTINUING FOR 40 WK (STUDY DURATION: 60 WK), Species: RAT, Strain/Sex: F344/MALE, Target Tissue: Type of Lesion: ZYMBAL GLAND: ADENOMA AND CARCINOMA, Dose [Carcinogen]: 50 MG/KG 1/2 WK FOR 20 WK TO RATS MAINTAINED ON ETHINYL ESTRADIOL CONTAINING DIET (0.75 PPM) FOR 1 WK CYCLED WITH ETHINY, Promoter: ETHINYL ESTRADIOL, 57-63-6", "value": "2/10 (20%), 1/12 (8%), 60%, not significant"}
    ]}
  ]
}
